Legend:
[1] = tested on: mouse brains
[2] = commercially available dyes to be tested; cited from earlier work

| SMILES | Abs.: peak absorption wavelength [2] [nm] | also measured |
| --- | --- | --- |
| Nc1ccncc1 [4-AP, 4-am inopyridine] |  | PA waveforms (DPA-stained cortex) after 4-AP ([1]; mouse, in vivo): large-amplitude high-frequency waveforms consistent with epileptiform discharges; behavioural effect in mice ([1]; mouse, in vivo): signs of convulsions |
| CCN(CC)c1ccc2cc(/C=C/c3cc[n+](CC[N+](C)(C)C)cc3)ccc2c1.[Br-].[Br-] [Di-2-ANEPEQ] | 517 |  |
| CCCCCCCCCCCCN(CCCCCCCCCCCC)c1ccc2cc(/C=C/c3cc[n+](CCC[N+](C)(C)C)cc3)ccc2c1.[Br-].[Br-] [Di-12-ANEPPQ] | 519 |  |
| CCCCN1C(=O)/C(=C/C=C/C=C2/C=CN(CCCCS(=O)(=O)[O-])c3ccccc32)SC1=S.[Na+] [NK 2761] | 716 |  |
| CCCCN(CCCC)c1ccc(/C=C/C=C/c2cc[n+](CCCCS(=O)(=O)[O-])cc2)cc1 [RH 160] | 530 |  |
| CCCCN(CCCC)c1ccc(/C=C/C=C/C=C/c2cc[n+](CCCCS(=O)(=O)[O-])cc2)cc1 [RH 237] | 528 |  |
| CCN(CC)c1ccc(/C=C/C=C/c2cc[n+](CCC[N+](CC)(CC)CC)cc2)cc1.[Br-].[Br-] [RH 414] | 532 |  |
| CCN(CC)c1ccc(/C=C/C=C/c2cc[n+](CC(O)C[N+](C)(C)CCO)cc2)cc1.[Br-].[Br-] (stereo not shown) [RH 795] | 530 |  |
| FC(F)OC(Cl)C(F)(F)F (stereo not shown) [isoflurane] |  | PA signal (DPA-stained cortex) after prolonged isoflurane ([1]; 5% isoflurane, prolonged exposure (30 minutes), after 4-AP): suppression of photoacoustic signal change |

Reference: patent publication US10405750B2, “Nonradiative voltage-sensitive dye for imaging neuronal action potential” (Washington University, priority 2014, dated 2019)
